Laboratory results as given in patent US8470765B2, “Polypeptides and antibacterial or antiseptic use of same” (AnGes MG, Inc., priority 2009, dated 2013).
No end group written: not given here.

What was measured:
Format in all cases: cell-based
[1] = test system: Escherichia coli ATCC 25922; experiment: microbe, parasite or virus in culture; conditions: Table 5; unit not given
Method: (§1) Bacteria (Escherichia coli ATCC 25922, Pseudomonas aeruginosa ATCC 27853, Staphylococcus aureus ATCC29213, Klebsiella pneumoniae JCM 1662, Enterobacter cloacae JCM 1232, Enterobacter aerogenes JCM 1235 and Staphylococcus epidermidis JCM 2414) were inoculated to Mueller-Hinton broth: MHB or LB medium, and cultured at a temperature and period suited for each strain. From the thus obtained colonies, each strain was inoculated to a fresh liquid medium and cultured for 16 to 20 hours. Then an aliquot having a volume (10 to 50 appropriate to each strain was inoculated to a fresh liquid medium and cultured for 4 to 6 hours, followed by the measurement of the absorbance at 600 nm. After comparing the turbidity with McFarland #0.5, the resultant was diluted with a medium. Each strain was added to about 10^5 CFU/mL (final concentration). Each of the peptide solutions to be tested was diluted with MHB to obtain a solution of 128 μg/mL. […] As controls, tobramycin (TOB: aminoglucoside antibiotic), oxacillin (OX:β-lactam antibiotic), meropenem (MEPM: carbapenem antibiotic) and ciprofloxacin (new quinolone antibiotic) were used. […] To a 96-well microtiter plate, 0.1 mL of the inoculation solution and 0.1 mL of the peptide- or positive control-containing medium having the respective concentration were added, and cultured at 37° C. for 16 to 24 hours (or a time period suited for the growth of the respective strain). The well not containing the sample was used as a negative control. After the culturing, the growth was visually observed, and the minimum concentration at which the growth was inhibited was defined as the minimum growth inhibition concentration (MIC). The medium used in this test for bacteria was Mueller-Hinton broth. Independent experiments were carried out twice or more for each strain.

[2] = test system: Pseudomonas aeruginosa ATCC 27853; experiment: microbe, parasite or virus in culture; conditions: Table 5; unit not given
Method: as §1

[3] = test system: Staphylococcus aureus ATCC29213; experiment: microbe, parasite or virus in culture; conditions: Table 5; unit not given
Method: as §1

[4] = test system: Staphylococcus epidermidis JCM 2414; experiment: microbe, parasite or virus in culture; conditions: Table 5; unit not given
Method: as §1

[5] = test system: Escherichia coli ATCC 25922; experiment: ATP Assay (viability at 3 hours), Table 6; conditions: 3 h, 5 μg/mL
Method: (§2) Bacteria (Escherichia coli ATCC 25922, Pseudomonas aeruginosa ATCC 27853, Staphylococcus aureus ATCC29213, and Staphylococcus epidermidis JCM 2414) were inoculated to Mueller-Hinton broth: MHB or LB medium, and cultured at a temperature and period suited for each strain. From the thus obtained colonies, each strain was inoculated to a fresh liquid medium and cultured for 16 to 20 hours. Then an aliquot having a volume (10 to 50 μL) appropriate to each strain was inoculated to a fresh liquid medium and cultured for 4 to 6 hours, followed by the measurement of the absorbance at 600 nm. After comparing the turbidity with McFarland #0.5, the resultant was diluted with a medium. Each strain was added to about 10^5 CFU/mL (final concentration).
(§3) Each of the peptide solutions to be tested was diluted with the medium to obtain a solution of 10 μg/mL. As positive controls, tobramycin (TOB), oxacillin (OX) and meropenem (MEPM) were used. By dilution with sterilized purified water to 1.0 mg/mL, positive control-containing media having concentrations of […], respectively for TOB; 0.5, 0.12 and 0.06 μg/mL, respectively, for OX; and 1.0, 0.25, 0.12, 0.06, 0.03 and 0.008 μg/mL respectively, for MEPM, were prepared. To a 96-well microtiter plate, 0.1 mL of the inoculation solution and 0.1 mL of the peptide- or positive control-containing medium having the respective concentration were added, and cultured at 37° C. for 3 hours. The well not containing the sample was used as a negative control. After the culturing, ATP was measured using BacTiter-Glo Microbial Cell Viability Assay kit of PROMEGA, and compared with that in the negative control to obtain a relative value which was defined as a viability. The antibacterial activity was evaluated based on the viability at 3 hours later using ATP as an index.
(§4) The medium used in this test for bacteria was Mueller-Hinton broth. Independent experiments were carried out twice for each strain.

[6] = test system: Pseudomonas aeruginosa ATCC 27853; experiment: ATP Assay (viability at 3 hours), Table 6; conditions: 3 h, 5 μg/mL
Method: as §2, §3, §4

[7] = test system: Staphylococcus aureus ATCC29213; experiment: ATP Assay (viability at 3 hours), Table 6; conditions: 3 h, 5 μg/mL
Method: as §2, §3, §4

Substance | MIC Escherichia coli [1] | MIC Pseudomonas aeruginosa [2] | MIC Staphylococcus aureus [3] | MIC Staphylococcus epidermidis [4] | Escherichia coli ATP (viability, relative value to negative control) [5] | Pseudomonas aeruginosa ATP (viability, relative value to negative control) [6] | Staphylococcus aureus ATP (viability, relative value to negative control) [7]
RLGERLKRKIQKLIRL-NH2 [SRP-31] | 32-64 | 16 | 32-64 | 8-16 | 27.4 | 9.7 | 19.7
RLKRLGERLKRKIQKL-NH2 [SRP-36] | 16-32 | 8-16 | 16-32 | 8 | 6.4 | 2.0 | 3.6
RLKRLGERLKRKIQKLIRL-NH2 [SRP-28] | 16 | 4-8 | 16 | 8-16 | 7.1 | 1.4 | 5.2
LKRLGERLKRKIQKLIRL-NH2 [SRP-29] | 16-32 | 8 | 16-32 | 8 | 9.0 | 1.8 | 1.9
GRLKRLGERLKRKIQKWIRW-NH2 [SRP-22] | 8-16 | 8-16 | 8-16 | 8 | 4.5 | 1.4 | 5.0
GRLKRVGERLKRKIQKWIRW-NH2 [SRP-23] | 16 | 8-16 | 8-16 | 8-16 | 2.8 | 1.5 | 3.0
GRLKRLGERLKRKIQKLIRL-NH2 [SRP-27] | 16 | 8-16 | 16 | 8-16 | 5.6 | 2.1 | 3.2
GRLKRIGERLKRKIQKWIRW-NH2 [SRP-24] | 16 | 8-16 | 16 | 8-32 | 8.2 | 1.3 | 2.7
